Measured values taken from US20220226270A1, “VERY-LONG-CHAIN POLYUNSATURATED FATTY ACIDS, ELOVANOID HYDROXYLATED DERIVATIVES, AND METHODS OF USE” (Board of Supervisors of Louisiana State University and …, priority 2019, published 2022).

Experiments:
[1] = test system: cerebral cortical mixed neuronal cells; test: Oxygen glucose deprivation (OGD) in cerebral cortical mixed neuronal cultures; assay type: cell-based, rat; details: for neuroprotection after OGD by VLC-PUFA precursor: 250 nM, added after OGD exposure; for neuroprotection compared to OGD alone (Hoechst-positive nuclei, calcein-positive cell counting or MTT): 90 mins OGD, added after 2 h of reoxygenation at 200 nM, 500 nM or 1 μM, cortical mixed or hippocampal neurons; for frequency distribution of pyknotic vs non-pyknotic nuclei (nuclear size peak) after OGD: 500 nM, DIV 12, 90 min OGD, Hoechst
From the text: (§1) Primary cultures of cortical neurons: Primary cultures of cortical and hippocampal neurons were harvested from 18-day-old embryos (E18) taken from timed-pregnant, two-month-old Sprague-Dawley (SD) rats (Charles River Lab., Wilmington, Mass.). Briefly, timed-pregnant SD rats were euthanized and embryos were collected in sterile conditions. Embryonic brains were dissected out by forceps on ice and placed in a petri dish containing ice-cold Hank's Balanced Salt Solution (HBSS) (GIBCO). Meninges were removed under a dissecting microscope and cortical tissues were chopped into small pieces with micro-spring scissors. These tissues were transferred to 15 ml tubes containing trypsin-EDTA (0.025% in HBSS) and DNase I. The tubes were incubated in 37° C. chamber for 15 mins and were agitated every 5 mins. After stopping the trypsinization with 5 ml 10% FBS, these tissues were triturated 15 times with a fire polished Pasteur pipet. Cell clumps were left to settle for 2 mins and the supernatant was transferred to a 15 ml Eppendorf tube. The supernatant was filtered through a 70 μm pore-sized filter (Corning cell strainer) and centrifuged for 5 mins at 1000 rpm. The cells were then resuspended in Neurobasal medium (GIBCO) containing 2% B27 (GIBCO) and 2% N2 (GIBCO) supplements, along with 0.5 mM glutamine, 50 U/ml penicillin/streptomycin.
Cells were counted using a Neubauer hemocytometer. 1×10^6 cells were seeded on poly-D-lysine-coated 12 well cell culture dish (CORNING) and cultured in incubator (37° C., 5% CO2). Culture medium was first replaced after 24 h, then half of the medium was replaced with fresh medium every three days. As a result, approximately, 90% purity of neurons was obtained as determined by class-III-β tubulin, GFAP and Hoechst 33258 staining. Cells were maintained in culture for about 2 weeks until they were exposed to uncompensated oxidative stress, OGD, or NMDA excitotoxicity.
(§2) Oxygen glucose deprivation (OGD), NMDA excitotoxicity or uncompensated oxidative stress (UOS) exposure: An in vitro oxygen glucose deprivation (OGD) model was established. Primary cortical neurons were cultured from SD rat embryos. On day in vitro (DIV) 12, cells were washed with phosphate-buffered saline and incubated in glucose-free Neurobasal medium (GIBCO) for 30 mins. The cells were then placed in a modular incubator chamber and incubated in an anaerobic chamber (95% N2, 5% CO2) at 37° C. for 90 mins for OGD.
After 90 mins of OGD exposure, cells were returned to the original medium (Neurobasal medium (GIBCO) containing 2% B27 (GIBCO) and 2% N2 (GIBCO) supplements, along with 0.5 mM glutamine, 50 U/ml penicillin/streptomycin) and placed in a normoxic chamber (37° C., 5% CO2) for 2 h. Then the medium was changed with medium containing either ELV-N32 or ELV-N34 [500 nM] and maintained in a normoxic chamber (37° C., 5% CO2) for 12 h, after which cells were sampled and assayed for cell viability using different methods as previously described (25-28). Cerebral cortical mixed neuronal cells or hippocampal cells in culture were exposed to either NMDA or uncompensated oxidative stress (UOS) for 12 h by addition of either NMDA (25 μM, 50 μM, or 100 μM) concentration or by the addition of TNFα (10 ng/mL) and H2O2 (50 μM, 100 μM, or 200 μM). Cell viability and neuroprotection in the presence of ELV-N32, ELV-N34, 32:6, or 34:6 were assayed after 12 h.
Hoechst staining and unbiased image analysis: Cells were washed with 1× Dulbecco's Phosphate Buffered Saline (DPBS) containing no calcium or magnesium (GIBCO) and fixed for 10 mins using ice-cold 4% paraformaldehyde (PFA) followed by 15 mins incubation in 100% methanol. Cells were washed with 1× Phosphate Buffered Saline (PBS) pH 7.4 (GIBCO) and incubated in PBS containing 20 μM Hoechst 33258 (Molecular Probes) for 20 mins. Cells were then washed 3 times with 1× PBS and stored in 1× PBS at 4° C. until they were imaged for microscopy. […]

[2] = test system: hippocampal mixed neuronal culture; test: Oxygen glucose deprivation (OGD) in hippocampal mixed neuronal culture; assay type: cell-based, rat; details: 500 nM, DIV 12, 90 min OGD (FIG. 18G)
From the text: as §1, §2
After 90 mins of OGD exposure, cells were returned to the original medium (Neurobasal medium (GIBCO) containing 2% B27 (GIBCO) and 2% N2 (GIBCO) supplements, along with 0.5 mM glutamine, 50 U/ml penicillin/streptomycin) and placed in a normoxic chamber (37° C., 5% CO2) for 2 h. Then the medium was changed with medium containing either ELV-N32 or ELV-N34 [500 nM] and maintained in a normoxic chamber (37° C., 5% CO2) for 12 h, after which cells were sampled and assayed for cell viability using different methods as previously described (25-28). […]
One 4×4 tile mosaic was acquired from the center of each well using a Zeiss 510 Meta laser confocal microscope and LSM 510 Meta software. […] An Otsu auto threshold was applied to each image of Hoechst-stained nuclei, and the area of each detected object was recorded. […]

ARPE-19 cells under UOS = test: Western blot of pro-survival and pro-apoptotic proteins in ARPE-19 cells under UOS; assay type: cell-based, human; details: for Iduna expression (VLC-PUFA): RPE cells under UOS (FIG. 7D); for SIRT1 expression (VLC-PUFA): RPE under UOS (FIG. 7C); for Bax protein / Bcl-2 protein / Bcl-xL protein / Bid protein / Bim protein: Western blot, UOS; for Prohibitin (type-1) expression (VLC-PUFA): concentration-dependent, 100 and 250 nM (FIG. 7J); for Iduna expression (ELV): 200 nM; for Sirtuin1 (SIRT1) expression (ELV): dose-dependent, 100-200 nM
Experimental: ARPE19 cells at 75-80% confluence (72 h growth in DMEM/F12+10% FBS) in 6-well plates were serum-starved for 8 h before exposure. The serum-starved cells were treated with TNF-α (Sigma-Aldrich, St. Louis, Mo.) (10 ng/ml) and H2O2 (600 μM) to induce oxidative stress and challenged with increasing concentrations (50-500 nM) of VLC-PUFA (C32:6n3 and C34:6n3) simultaneously with oxidative stress for 16 h (apoptosis) and 6 h (Western-blot) before detection of apoptosis and harvesting for protein analysis. In some experiments, DHA at a concentration of 100 nM and 15-LOX-1 inhibitor PD146176 at a concentration of 1 μM was added to treat the RPE cells under stress. Cell extracts were made and protein concentrations adjusted by Bio-Rad (Hercules, Calif.) protein reagent and used for Western blot analysis.
Analysis of Proteins: Bcl-2 family proteins, SIRT1 and Proinhibitin (type-1), and Iduna proteins were analyze by Western blot analysis. In brief, 20-25 μg equivalents of each cell extracts were subject to electrophoresis on a 4-12% gel (Promega) at 125 V for 2 h. The proteins were transferred to nitrocellulose membrane by I-blot transfer apparatus. The membranes were subjected to treatment with primary antibodies specific for Bcl-2, Bcl-xL, Bax, Bid, Bim, SIRT1 and Prohibitin (type-1) (Santa Cruz Biotechnology) and Iduna antibody (Neuro-Mab Lab, UCLA, Los Angeles, Calif.) overnight at 4° C. and probed for 45 mins with secondary antibody, goat anti-mouse Ig:horseradish peroxidase, and horseradish peroxidase-conjugated anti-biotin antibody, and then proteins were evaluated by using an ECL kit (Amersham).

SMILES	neuroprotection after OGD by VLC-PUFA precursor [1]	neuroprotection after OGD (Hoechst positive nuclei counting) [2]	Iduna expression (VLC-PUFA) (ARPE-19 cells under UOS)	SIRT1 expression (VLC-PUFA) (ARPE-19 cells under UOS)	Bax protein (ARPE-19 cells under UOS)	Bcl-2 protein (ARPE-19 cells under UOS)	Bcl-xL protein (ARPE-19 cells under UOS)	Bid protein (ARPE-19 cells under UOS)	Bim protein (ARPE-19 cells under UOS)	Prohibitin (type-1) expression (VLC-PUFA) (ARPE-19 cells under UOS)	neuroprotection after OGD by VLC-PUFA precursor ([1]; listed as 34:6)	neuroprotection compared to OGD alone (Hoechst-positive nuclei, calcein-positive cell counting or MTT) [1]	frequency distribution of pyknotic vs non-pyknotic nuclei (nuclear size peak) after OGD [1]	Iduna expression (ELV) (ARPE-19 cells under UOS)	relative potency in upregulating SIRT1 (ARPE-19 cells under UOS; UOS RPE cells)	Sirtuin1 (SIRT1) expression (ELV) (ARPE-19 cells under UOS)
CC/C=C\C/C=C\C/C=C\C/C=C\C/C=C\C/C=C\CCCCCCCCCCCCC(=O)O [32:6n3, (14Z,17Z,20Z,23Z,26Z,29Z)-dotriaconta-14,17,20,23,26,29-hexaenoic acid]	provide neuroprotection	showed neuroprotection	upregulation	upregulation	down regulated	upregulate	upregulate	down regulated	down regulated	upregulation						
CC/C=C\C/C=C\C/C=C\C/C=C\C/C=C\C/C=C\CCCCCCCCCCCCCCC(=O)O [34:6n3, (16Z,19Z,22Z,25Z,28Z,31Z)-tetratriaconta-16,19,22,25,28,31-hexaenoic acid]		showed neuroprotection	upregulation	upregulation	down regulated	upregulate	upregulate	down regulated	down regulated	upregulation	elicit neuroprotection					
CC/C=C\C[C@H](O)\C=C/C=C/C=C/[C@H](O)C/C=C\C/C=C\CCCCCCCCCCCCC(=O)OC [ELV-N32-Me, methyl (14Z,17Z,20R,21E,23E,25Z,27S,29Z)-20,27-dihydroxydotriaconta-14,17,21,23,25,29-hexaenoate]												elicited neuroprotection				
CC/C=C\C[C@H](O)\C=C/C=C/C=C/[C@H](O)C/C=C\C/C=C\CCCCCCCCCCCCC(=O)[O-].[Na+] [ELV-N32-Na, sodium (14Z,17Z,20R,21E,23E,25Z,27S,29Z)-20,27-dihydroxydotriaconta-14,17,21,23,25,29-hexaenoate]		neuroprotection elicited				enhanced the abundance	enhanced the abundance					elicited neuroprotection	positive rightward shift	enhanced	more potent than ELV-N34-Na	upregulate
CC/C=C\C[C@H](O)\C=C/C=C/C=C/[C@H](O)C/C=C\C/C=C\CCCCCCCCCCCCCCC(=O)OC [ELV-N34-Me, methyl (16Z,19Z,22R,23E,25E,27Z,29S,31Z)-22,29-dihydroxytetratriaconta-16,19,23,25,27,31-hexaenoate]												elicited neuroprotection	positive rightward shift			
CC/C=C\C[C@H](O)\C=C/C=C/C=C/[C@H](O)C/C=C\C/C=C\CCCCCCCCCCCCCCC(=O)[O-].[Na+] [ELV-N34-Na, sodium (16Z,19Z,22R,23E,25E,27Z,29S,31Z)-22,29-dihydroxytetratriaconta-16,19,23,25,27,31-hexaenoate]		neuroprotection elicited				enhanced the abundance	enhanced the abundance					elicited neuroprotection		enhanced		upregulate
